Among the data in patent publication US20230348468A1, “1H-PYRAZOLO[4,3-d]PYRIMIDINE COMPOUNDS AS TOLL-LIKE RECEPTOR 7 (TLR7) AGONISTS” (BRISTOL-MYERS SQUIBB COMPANY, priority 2020, published 2023) are EC50 values, retold here.

By EC50 is commonly meant the concentration that produces a half-maximal response.

One assay addresses T1, human TLR7 (Homo sapiens, UniProt Q9NYK1).
T1 construct: host or cells: HEK-Blue TLR7 cells (engineered human embryonic kidney cells)
T1 sequence (Q9NYK1 27-1049): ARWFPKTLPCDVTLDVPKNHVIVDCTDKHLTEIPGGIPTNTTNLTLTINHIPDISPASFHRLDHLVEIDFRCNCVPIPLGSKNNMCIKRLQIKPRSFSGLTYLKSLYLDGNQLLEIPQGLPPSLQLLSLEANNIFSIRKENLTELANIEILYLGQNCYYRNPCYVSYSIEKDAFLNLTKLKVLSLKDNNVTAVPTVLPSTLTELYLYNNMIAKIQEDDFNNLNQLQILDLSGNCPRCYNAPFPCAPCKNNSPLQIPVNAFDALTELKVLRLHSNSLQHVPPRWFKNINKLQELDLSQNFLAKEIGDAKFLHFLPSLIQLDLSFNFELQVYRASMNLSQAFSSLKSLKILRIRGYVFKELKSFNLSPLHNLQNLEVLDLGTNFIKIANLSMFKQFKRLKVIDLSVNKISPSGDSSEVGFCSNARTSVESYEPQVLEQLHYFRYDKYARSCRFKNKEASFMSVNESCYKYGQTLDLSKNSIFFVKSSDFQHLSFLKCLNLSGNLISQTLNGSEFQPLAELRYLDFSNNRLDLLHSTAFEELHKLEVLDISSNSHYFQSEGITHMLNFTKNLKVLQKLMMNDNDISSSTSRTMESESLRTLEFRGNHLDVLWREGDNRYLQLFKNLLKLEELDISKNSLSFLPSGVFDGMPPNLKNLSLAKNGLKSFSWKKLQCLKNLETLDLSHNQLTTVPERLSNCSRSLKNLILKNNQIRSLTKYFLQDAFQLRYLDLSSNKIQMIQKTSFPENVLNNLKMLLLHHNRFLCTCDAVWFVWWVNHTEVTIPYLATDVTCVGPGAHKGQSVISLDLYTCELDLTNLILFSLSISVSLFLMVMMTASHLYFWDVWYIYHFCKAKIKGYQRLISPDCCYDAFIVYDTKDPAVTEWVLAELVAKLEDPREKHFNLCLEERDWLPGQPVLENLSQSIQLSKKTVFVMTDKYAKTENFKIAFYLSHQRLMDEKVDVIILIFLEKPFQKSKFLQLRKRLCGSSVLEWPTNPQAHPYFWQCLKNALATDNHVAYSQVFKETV
The experiment in a line: Human TLR7 agonist activity (reporter) assay. The assay is classed as cell-based. The settings on record: HEK-Blue TLR7 cells, SEAP reporter, 18 h treatment; average where assay performed multiple times; read-out: hTLR7 Agonism EC50. The procedure:
This procedure describes a method for assaying human TLR7 (hTLR7) agonist activity of the compounds disclosed in this specification.
HEK-Blue™ TLR7 cells were added to each well of a 384-well tissue-culture plate (15,000 cells per well) and incubated 16-18 h at 37° C., 5% CO2. Compounds (100 nl) were dispensed into wells containing the HEK-Blue™ TLR cells and the treated cells were incubated at 37° C., 5% CO2. After 18 h treatment ten microliters of freshly-prepared Quanti-Blue” reagent (Invivogen) was added to each well, incubated for 30 min (37° C., 5% CO2) and SEAP levels measured using an Envision plate reader (OD=620 nm). The half maximal effective concentration values (EC50; compound concentration which induced a response halfway between the assay baseline and maximum) were calculated.

The next assay deals with CD69. The experiment in a line: Induction of CD69 in human whole blood. The assay is classed as cell-based. The conditions noted are these: heparinized human whole blood, 17 hrs at 37° C.; 100% set to 1 uM resiquimod; average where assay performed multiple times; read-out: hWB CD69 EC50. On the procedure: The induction of Type I interferon (IFN) MX-1 genes and the B-cell activation marker CD69 are downstream events that occur upon activation of the TLR7 pathway. The following is a human whole blood assay that measures their induction in response to a TLR7 agonist.
Heparinized human whole blood was harvested from human subjects and treated with test TLR7 agonist compounds at 1 mM. The blood was diluted with RPMI 1640 media and Echo was used to predot 10 nL per well giving a final concentration of 1 uM (10 nL in 10 uL of blood). After mixing on a shaker for 30 sec, the plates were covered and placed in a 37° C. chamber for o/n=17 hrs. Fixing/lysis buffer was prepared (5×→1× in H2O, warm at 37° C.; Cat #BD 558049) and kept the perm buffer (on ice) for later use.
For surface markers staining (CD69): prepared surface Abs: 0.045 ul hCD14-FITC (ThermoFisher Cat #MHCD1401)+0.6 ul hCD19-ef450 (ThermoFisher Cat #48-0198-42)+1.5 ul hCD69-PE (cat #BD555531)+0.855 ul FACS buffer. Added 3 ul/well, spin 1000 rpm for 1 min and mixed on shaker for 30 sec, put on ice for 30 mins. Stop stimulation after 30 min with 70 uL of prewarmed 1× fix/lysis buffer and use Feliex mate to resuspend (15 times, change tips for each plate) and incubate at 37 C for 10 min.
Centrifuge at 2000 rpm for 5 min aspirate with HCS plate washer, mix on shaker for 30 sec and then wash with 70 uL in dPBS and pelleted 2×s (2000 rpm for 5 min) and 50 ul wash in FACS buffer pelleted 1×s (2000 rpm for 5 min). Mix on shaker for 30 sec. For Intracellular markers staining (MX-1): Add 50 ul of BD Perm buffer III and mix on shaker for 30 sec. Incubate on ice for 30 min (in the dark). Wash with 50 uL of FACS buffer 2× (spin @2300 rpm×5 min after perm) followed by mixing on shaker for 30 sec. Resuspended in 20 ul of FACS buffer containing MX1 antibody ( )(4812)-Alexa 647: Novus Biologicals #NBP2-43704AF647) 20 ul FACS bf+0.8 ul hIgG+0.04 ul MX-1. Spin 1000 rpm for 1 min, mix on shaker for 30 se and the samples were incubated at RT in the dark for 45 min followed by washing 2×FACS buffer (spin @2300 rpm×5 min after perm). Resuspend 20 ul (35 uL total per well) of FACS buffer and cover with foil and place in 4° C. to read the following day. Plates were read on iQuePlus. The results were loaded into toolset and […] curves are generated in curve master. The y-axis 100% is set to 1 uM of resiquimod.

`CCCCNc1nc(N)nc2cnn(Cc3ccc(C4(O)COC4)cc3OC)c12` [Compound 114, 3-(4-{[5-amino-7-(butylamino)-1H-pyrazolo[4,3-d]pyrimidin-1-yl]methyl}-3-methoxyphenyl)oxetan-3-ol]: on human TLR7, the EC50 came out at 410 nM. Regarding `CCCCNc1nc(N)nc2cnn(Cc3ccc(C4(O)CCC4)cc3OC)c12` [Compound 117, 1-(4-{[5-amino-7-(butylamino)-1H-pyrazolo[4,3-d]pyrimidin-1-yl]methyl}-3-methoxyphenyl)cyclobutan-1-ol], the EC50 at human TLR7 is 25.9 nM; in the assay with CD69, 804 nM.

Turning to `CCC[C@@H](CCO)Nc1nc(N)nc2cnn(Cc3cc(C(C)(C)N)ccc3OC)c12` [Compound 104, (S)-3-((5-Amino-1-(5-(2-aminopropan-2-yl)-2-methoxybenzyl)-1H-pyrazolo[4,3-d]pyrimidin-7-yl)amino)hexan-1-ol], the EC50 was found to be 34.5 nM at human TLR7 and 12.7 nM in the assay with CD69. For `CCCCNc1nc(N)nc2cnn(Cc3ccc(C(C)(O)C(F)(F)F)cc3OC)c12` (stereo not shown) [Compound 115, 2-(4-{[5-amino-7-(butylamino)-1H-pyrazolo[4,3-d]pyrimidin-1-yl]methyl}-3-methoxyphenyl)-1,1,1-trifluoropropan-2-ol] the same measures were 146 nM and 340 nM. Take `CCCCNc1nc(N)nc2cnn(Cc3ccc(C(O)(CC)CC)cc3OC)c12` [Compound 111, 3-(4-{[5-amino-7-(butylamino)-1H-pyrazolo[4,3-d]pyrimidin-1-yl]methyl}-3-methoxyphenyl)pentan-3-ol]: the EC50 at human TLR7 came to 45.9 nM. Regarding `CCC[C@@H](CCO)Nc1nc(N)nc2cnn(Cc3ccc(C(C)(C)N)cc3OC)c12` [Compound 102, (S)-3-((5-Amino-1-(4-(2-aminopropan-2-yl)-2-methoxybenzyl)-1H-pyrazolo[4,3-d]pyrimidin-7-yl)amino)hexan-1-ol], the EC50 on human TLR7 was found to be 7.2 nM; in the assay with CD69 it was 1.8 nM. For `CCCCNc1nc(N)nc2cnn(Cc3ccc(C(C)(C)N)cc3OC)c12` [Compound 101, 1-(4-(2-Aminopropan-2-yl)-2-methoxybenzyl)-N7-butyl-1H-pyrazolo[4,3-d]pyrimidine-5,7-diamine] the same measures were 76.6 nM and 11.6 nM. `CCC[C@@H](CCO)Nc1nc(N)nc2cnn(Cc3ccc(C(C)(C)O)cc3OC)c12` [Compound 109, (3S)-3-[(5-amino-1-{[4-(2-hydroxypropan-2-yl)-2-methoxyphenyl]methyl}-1H-pyrazolo[4,3-d]pyrimidin-7-yl)amino]hexan-1-ol]: the EC50 at human TLR7 was found to be 4.6 nM; in the assay with CD69, 3.5 nM. Regarding `CCCCNc1nc(N)nc2cnn(Cc3cc(C(C)(C)N)ccc3OC)c12` [Compound 105, 1-(5-(2-Aminopropan-2-yl)-2-methoxybenzyl)-N7-butyl-1H-pyrazolo[4,3-d]pyrimidine-5,7-diamine], the EC50 in the assay with CD69 worked out at 50.6 nM. On to `CC[C@@H](CCO)Nc1nc(N)nc2cnn(Cc3ccc(C(C)(C)N)cc3OC)c12` [Compound 106, (S)-3-((5-amino-1-(4-(2-aminopropan-2-yl)-2-methoxybenzyl)-1H-pyrazolo[4,3-d]pyrimidin-7-yl)amino)pentan-1-ol], for which the EC50 on human TLR7 was 211 nM; in the assay with CD69 it was 3.7 nM.

Turning to `CCCCNc1nc(N)nc2cnn(Cc3ccc(C4(N)COC4)cc3OC)c12` [Compound 107, 1-(4-(3-aminooxetan-3-yl)-2-methoxybenzyl)-N7-butyl-1H-pyrazolo-[4,3-d]pyrimidine-5,7-diamine], the EC50 on human TLR7 turned out to be 247 nM; in the assay with CD69, 42.6 nM. Consider `CCCCNc1nc(N)nc2cnn(Cc3ccc(C(C)(O)CC)cc3OC)c12` (stereo not shown) [Compound 112, 2-(4-{[5-amino-7-(butylamino)-1H-pyrazolo[4,3-d]pyrimidin-1-yl]methyl}-3-methoxyphenyl)butan-2-ol], for which the EC50 at human TLR7 came to 95.9 nM.

Take `COc1cc(C(C)(C)N)ccc1Cn1ncc2nc(N)nc(NCc3cc(C)on3)c21` [Compound 103, 1-(4-(2-Aminopropan-2-yl)-2-methoxybenzyl)-N7-((5-methylisoxazol-3-yl)methyl)-1H-pyrazolo[4,3-d]pyrimidine-5,7-diamine]: the concentration giving a half-maximal response (EC50) at human TLR7 was 202 nM. On the same count and under the same terms, the result for `CCCCNc1nc(N)nc2cnn(Cc3ccc(C(C)(O)CCC)cc3OC)c12` (stereo not shown) [Compound 113, 2-(4-{[5-amino-7-(butylamino)-1H-pyrazolo[4,3-d]pyrimidin-1-yl]methyl}-3-methoxyphenyl)pentan-2-ol] reads 256 nM; that for `CCCCNc1nc(N)nc2cnn(Cc3ccc(C4(O)CNC4)cc3OC)c12` [Compound 116, 3-(4-{[5-amino-7-(butylamino)-1H-pyrazolo[4,3-d]pyrimidin-1-yl]methyl}-3-methoxyphenyl)-azetidin-3-ol], 786 nM; that for `CCCCNc1nc(N)nc2cnn(Cc3ccc(C(C)(C)O)cc3OC)c12` [Compound 110, 2-(4-{[5-amino-7-(butylamino)-1H-pyrazolo[4,3-d]pyrimidin-1-yl]methyl}-3-methoxyphenyl)propan-2-ol], 71.1 nM.

Consider `CCC[C@@H](CCO)Nc1nc(N)nc2cnn(Cc3ccc(C4(N)COC4)cc3OC)c12` [Compound 108, (S)-3-((5-amino-1-(4-(3-aminooxetan-3-yl)-2-methoxybenzyl)-1H-pyrazolo[4,3-d]pyrimidin-7-yl)amino)hexan-1-ol], for which the EC50 at human TLR7 was 43.4 nM; in the assay on CD69 it was 3.3 nM.

Turning to `CCC[C@@H](CCO)Nc1nc(N)nc2cnn(Cc3cnc(C(C)(C)N)cc3OC)c12` [Compound 120, (3S)-3-[(5-amino-1-{[6-(2-aminopropan-2-yl)-4-methoxypyridin-3-yl]methyl}-1H-pyrazolo[4,3-d]pyrimidin-7-yl)amino]hexan-1-ol], the EC50 on human TLR7 turned out to be 48.3 nM. Still for that read-out and setting: next, `CCC[C@@H](CCO)Nc1nc(N)nc2cnn(Cc3nc(C(C)(C)N)ccc3OC)c12` [Compound 119, (3S)-3-[(5-amino-1-{[6-(2-aminopropan-2-yl)-3-methoxypyridin-2-yl]methyl}-1H-pyrazolo[4,3-d]pyrimidin-7-yl)amino]hexan-1-ol]: 4950 nM.
